Results reported in PubChem BioAssay AID1645865 (Buhrlage Lab, Dana-Farber Cancer Institute and Novartis …, 2021).
Calls of active or inactive are those of the source.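 Rule for the calls: active = maximal inhibition of the USP30 enzyme reaching 30% or more across the dose series; inactive = the rest.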

Target: Ubiquitin carboxyl-terminal hydrolase 30 (Homo sapiens) (UniProt Q70CQ3)
Assay: ubiquitin-specific protease 30 DUB inhibitors, concentration-effect, biochemical, validation of primary actives (AID 1645865)
Conditions: purified USP30, Ub-rhodamine cleavage, fluorescence, 2 h

Ubiquitin carboxyl-terminal hydrolase 30 (Homo sapiens), sequence (Q70CQ3 whole entry, looked up): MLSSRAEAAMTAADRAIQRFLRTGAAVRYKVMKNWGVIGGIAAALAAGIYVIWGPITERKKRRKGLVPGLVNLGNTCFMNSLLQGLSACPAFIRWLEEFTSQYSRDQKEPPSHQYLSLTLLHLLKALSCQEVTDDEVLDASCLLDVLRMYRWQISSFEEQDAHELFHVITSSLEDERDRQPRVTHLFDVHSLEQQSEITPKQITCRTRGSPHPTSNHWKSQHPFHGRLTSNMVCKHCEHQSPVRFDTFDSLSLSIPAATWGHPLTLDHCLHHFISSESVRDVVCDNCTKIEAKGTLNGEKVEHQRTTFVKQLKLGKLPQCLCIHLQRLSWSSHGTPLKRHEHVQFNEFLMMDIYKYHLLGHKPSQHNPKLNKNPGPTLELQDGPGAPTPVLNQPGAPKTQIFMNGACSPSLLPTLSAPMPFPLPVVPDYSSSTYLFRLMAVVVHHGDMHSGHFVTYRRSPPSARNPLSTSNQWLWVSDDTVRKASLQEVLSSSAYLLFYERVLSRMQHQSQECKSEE

Compound | IC50
Cc1ccc(C(C)C)cc1OCCOCCN1CCNCC1 | > 50 µM (inactive)
O=C(Nc1ccc2c(c1)OCCO2)Nc1nnc(CC(=O)N2CCCCC2)s1 | > 50 µM (inactive)
Cc1ccc(C(=O)Nc2ccc(S(=O)(=O)N3CCCC3)cc2)cc1Br | > 50 µM (inactive)
COc1ccc(CNC(=O)C(C)n2nc(-c3ccco3)c(-c3cc(C)no3)cc2=O)cc1 (stereo not given) | > 50 µM (inactive)
Cc1nc(C(=O)N[C@@H](C)C(=O)NCc2ccc3c(c2)OCO3)cc2c1[nH]c1ccccc12 | > 50 µM (inactive)
COc1ccc(/C=C/C(=O)Nc2cccc(S(=O)(=O)Nc3ccccc3Cl)c2)c(OC)c1 | 25.6 µM
CC12c3ccc4c(c3C(=O)c3occ(c31)C(=O)CC2O)CCC4=O (stereo not given) | > 50 µM (inactive)
C/C=C1/C2=CCCN3C(=O)O[C@H]([C@H]1O)[C@H]23 | > 50 µM (inactive)
COc1cc2c(oc(=O)c3cc(C)cc(OC)c32)c2c([C@@H]3OC(C)[C@@H](O)[C@@](C)(O)C3O)ccc(O)c12 (stereo not given in full) | > 50 µM (inactive)
COC(=O)c1sccc1NC(=O)COc1ccsc1C(=O)OC | 27.9 µM
CCOC(=O)c1ccc(NC(=O)C[n+]2cc(-c3ccc(Cl)cc3)n3c2CCC3)cc1 | 38.5 µM
COc1cccc(NC(=O)Cc2sc(Nc3cc(C)cc(C)c3)nc2O)c1 | 23 µM
CCCC(=O)c1c[nH]c(C(=O)NCc2ccc(F)cc2)c1 | 17.4 µM
Cc1sc2ncnc(OCc3ccc(F)cc3Cl)c2c1C | > 50 µM (inactive)
CCC(=O)Nc1nc2cc(NC(=O)Nc3cc(C)cc(C)c3)ccc2s1 | 1.65 µM
Cn1c(=O)c2cc(C(=O)Nc3ccc(F)cc3)cnc2n(C)c1=O | 25.8 µM
N#Cc1cc2c(nc1SCC(=O)NCc1ccccc1)CCCC2 | > 50 µM (inactive)
Cc1ccc(NCc2cc3c(C(C)(C)C)nn(-c4ccc(Cl)cc4)c3[nH]c2=O)cc1 | > 50 µM (inactive)
CCC(C)c1ccc(O[C@@H]2O[C@@H]3COC(c4ccccc4)O[C@H]3[C@H](O)[C@H]2NC(C)=O)cc1 (stereo not given in full) | 18.5 µM

Compound | IC50
COc1ccc(NC(=O)c2ccccc2OCC(=O)Nc2ccccc2C(F)(F)F)c(C)c1 | 28.8 µM
COc1ccc(C(=O)NCc2csc3ccccc23)cc1 | 45.2 µM
CCCCCn1c(Sc2ccc(C)cc2)nc2c1c(=O)[nH]c(=O)n2C | 11.3 µM
Cc1cccc(-n2cnc(C(=O)NCc3ccc(F)cc3)c2)n1 | 44.9 µM
COc1ccc2nc(SCC(=O)Nc3ccc(NC(C)=O)cc3)c(C)cc2c1 | 4.95 µM
CCc1ccc2c(c1)[C@]1(C(=O)N2)[C@@H]2C(=O)N(c3ccc(Cl)cc3Cl)C(=O)[C@@H]2[C@@H]2CCCN21 | > 50 µM (inactive)
Cc1ccc(NC(=O)c2ccc(N3CCOCC3)nn2)cc1F | 39.7 µM
Cc1noc(-c2cccc(=O)n2CC(=O)Nc2ccc(C)c(C)c2)n1 | 25 µM
Cc1nc(Nc2c3ccccc3nc3ccccc23)sc1C | > 50 µM (inactive)
O=C(O)c1ccc(C2Cc3c([nH]c(=O)[nH]c3=O)O2)cc1 (stereo not given) | 9.78 µM
N=C1C(c2nc3ccccc3s2)=C(O)CN1Cc1ccc(F)cc1 | > 50 µM (inactive)
CC1CC[C@@]2(NC1)O[C@H]1C[C@H]3[C@@H]4CC=C5C[C@@H](O)CC[C@]5(C)[C@H]4CC[C@]3(C)[C@H]1[C@@H]2C (stereo not given in full) | 13 µM
COc1cc(OC)c2c(c1)C(=O)C1=C(COC(C)(O)C1)C2=O (stereo not given) | > 50 µM (inactive)
CC1=CN2C(=N)/C(=C/c3cn(Cc4ccc(Cl)cc4)c4ccccc34)C(=O)N=C2S1 | > 50 µM (inactive)
Nc1nc(OCc2ccccc2)c2[nH]c(/C=C/c3cccs3)nc2n1 | 35.6 µM
O=C1C[C@@H]2O[C@H](CNC(=O)[C@@H]3CN(CCN3C(=O)C3CCOCC3)C(=O)[C@@H]3C[C@@H](CN3Cc3ccc(F)c(F)c3)N1)[C@@H](O)[C@H]2O | > 50 µM (inactive)
CC(=O)c1cccc(NC(=O)c2ccc(CN(c3ccc(C)c(C)c3)S(C)(=O)=O)cc2)c1 | > 50 µM (inactive)
Cc1cc(=O)n2c3c(c4c(cc13)c(CO)cc(=O)n4C)OC2 | > 5 µM (inactive)
CSc1ccccc1C(=O)Nc1sc2c(c1C(N)=O)CCC(C)C2 (stereo not given) | 2.15 µM

Compound | IC50
Cc1c(CC(=O)Nc2nn[nH]n2)c(=O)oc2cc3c(cc12)CCC1(CCCCC1)O3 | > 50 µM (inactive)
c1coc(CNc2nc3ccccc3n3nnnc23)c1 | > 50 µM (inactive)
c1coc(CNc2nc(Nc3cccc4ccccc34)nc3ccccc23)c1 | > 50 µM (inactive)
Cc1cc(SCc2ncon2)c(C)cc1Cl | > 50 µM (inactive)
CCN(CCCNC(=O)c1ccc(Cn2c(=O)[nH]c3ccccc3c2=O)cc1)c1ccccc1 | 6.5 µM
CCn1c(SCc2cccc(C)c2)nnc1-c1cnccn1 | > 50 µM (inactive)
COc1ccc(C(=O)CCN2CCOCC2)cc1[N+](=O)[O-] | > 50 µM (inactive)
CN1CCN(c2ncnc3c2oc2ccc(Cl)cc23)CC1 | > 50 µM (inactive)
COc1cccc(-n2nnc(C(=O)Nc3ccc(C)c(C)c3)c2C)c1 | > 50 µM (inactive)
CCCOc1ccc(C(=O)Nc2ccc(S(=O)(=O)Nc3cc(C)nc(C)n3)cc2)cc1 | > 50 µM (inactive)
CCOC(=O)N1CCN(S(=O)(=O)c2ccc(C(=O)Nc3ccc(Br)cc3)cc2)CC1 | 1.65 µM
CC(=O)[C@H]1c2c(c(O)c3c(O)cccc3c2-c2c3c(c(O)c4c(O)cccc24)C(=O)C[C@](C)(O)[C@H]3C(C)=O)C(=O)C[C@]1(C)O | > 50 µM (inactive)
COc1ccc(CC(=O)NCc2ccc3[nH]c(C)cc3c2)cc1 | > 50 µM (inactive)
CCOc1ccc(CC(=O)Nc2ccc(-c3cn4cccnc4n3)cc2)cc1 | > 50 µM (inactive)
CCc1c(C)c(C#N)c2nc3ccccc3n2c1N1CCN(C2CCCC2)CC1 | 1.7 µM
COc1ccc(-c2ocnc2C(=O)Nc2cccc(Cl)c2C)cc1OC | 45.8 µM
N#C/C(=C\c1ccc(OCc2cccc(C(=O)O)c2)cc1)c1ccc(F)cc1 | > 50 µM (inactive)
CC(C)CC[C@H]1O[C@@H](CC(=O)O)Cc2cc3c(c(O)c21)C(=O)c1sc(=O)n(C)c1C3=O | > 50 µM (inactive)
COC(=O)c1c(C)[nH]c(C(=O)C(C)OC(=O)CCC2CCCC2)c1C (stereo not given) | > 50 µM (inactive)

Further lines, results first:

IC50 | Compound
> 50 µM (inactive) | Cc1ccc2nc(NC(=O)C3CCCN3S(=O)(=O)c3ccc4c(c3)OCCO4)sc2c1 (stereo not given)
> 50 µM (inactive) | CC(=O)N1CCOc2cc(S(=O)(=O)N3CCCC3c3cc(C)no3)ccc21 (stereo not given)
8.55 µM | COc1ccc(NC(=O)Nc2cccc(-c3nnc(-c4ccccc4)o3)c2)cc1OC
32.5 µM | CC(C)CCN1C(=O)C2C(C(=O)Nc3ccc(Oc4ccccc4)cc3)C3C=CC2(O3)C1C(=O)NC1CCCCC1 (stereo not given)
21.6 µM | Cc1ccc(-n2cc(C(=O)NCc3cccnc3)nn2)cc1C
18.2 µM | O=C(Oc1ccc(-c2cnc3ccccc3n2)cc1)c1ccc(F)cc1
> 50 µM (inactive) | CC(=O)c1ccc(N2C(=O)N(Cc3cccc([N+](=O)[O-])c3)c3ccccc3S2(=O)=O)cc1
> 50 µM (inactive) | Cc1nc(-c2cccc(NC(=O)c3ccccc3Cl)c2)no1
38.5 µM | COc1cccc(-c2cc(C(=O)N3CCN(c4ccc(N5CCOCC5)nn4)CC3)[nH]n2)c1
35.8 µM | C[C@]12C(=O)N(c3ccc(C(=O)NCc4ccc(F)cc4)cc3)C(=O)N1CCc1c2[nH]c2ccccc12
> 50 µM (inactive) | Cc1cc(C(=O)CSc2nc3ccccc3[nH]2)c(C)n1Cc1ccco1
> 50 µM (inactive) | O=C(CN(Cc1ccc(Cl)cc1)S(=O)(=O)c1ccc(Cl)cc1)N1CCOCC1
> 50 µM (inactive) | O=C(Nc1cccc(Cl)c1)N1CCC(c2cc(-c3ccco3)n[nH]2)CC1
1.24 µM | Cc1cccc(NC(=O)Cn2cnc(-c3noc(-c4ccccc4)n3)c2)c1C
4.23 µM | COc1ccc(-c2cc3c(=O)n(CC(=O)Nc4ccccc4Cl)ccn3n2)cc1
> 50 µM (inactive) | Cc1cccc(N2CCN(C(=O)c3nnn(-c4ccc(F)cc4)n3)CC2)c1
44.3 µM | O=C(CC1Oc2ccccc2NC1=O)Nc1ccccc1Br (stereo not given)
39.4 µM | Cc1ccc2[nH]c(=O)c(CN(CC3CCCO3)S(=O)(=O)c3ccccc3)cc2c1 (stereo not given)
> 50 µM (inactive) | CCC(C)Oc1cccc(C(=O)Nc2ccc(CN3CCOCC3)cc2)c1 (stereo not given)

IC50 | Compound
2.39 µM | CCC(=O)N1c2ccccc2NC2=C(C(=O)CC(c3ccccc3OCc3ccccc3)C2)C1c1ccccc1 (stereo not given)
> 50 µM (inactive) | CCN(Cc1ccccc1)S(=O)(=O)c1ccc(C(=O)Nc2ccc3c(c2)OCCO3)cc1
21.2 µM | CCOc1ccc2c(c1)c(=O)c(C(=O)c1ccccc1)cn2CC(=O)Nc1ccc2c(c1)OCCO2
20.3 µM | Cc1ccc(NC(=O)Cn2cc(S(=O)(=O)N3CCCC3)ccc2=O)cc1
18 µM | CC(=O)c1sc(NC(=O)/C=C/c2ccccc2)nc1-c1ccccc1
> 50 µM (inactive) | COc1cccc(NC(=O)C2CCN(C(=O)c3cc(-c4cccnc4)n[nH]3)CC2)c1
16.7 µM | O=c1oc2ccccc2c2nn(-c3ccccn3)cc12
19.3 µM | COc1ccc(C(C(=O)NC2CCCCC2)N(C(=O)CCCC(=O)Nc2ccccn2)c2ccccc2C)cc1 (stereo not given)
2.06 µM | COc1cc(C(=O)NC(Cc2ccccc2)c2nc3ccccc3[nH]2)cc(OC)c1OC (stereo not given)
> 50 µM (inactive) | O=C(c1cccnc1)N1CCC2(CC1)CC1(CO2)Nc2ccccc2-n2cccc21 (stereo not given)
> 50 µM (inactive) | CC1Cc2ccccc2N1C(=O)Cn1c(=O)cc(O)c2ccccc21 (stereo not given)
> 50 µM (inactive) | O=C(Nc1ccc2c(c1)OCO2)c1cc(-c2cccnc2)n(-c2ccccc2)n1
> 50 µM (inactive) | COc1ccc(C(=O)Nc2ccc(S(=O)(=O)N3CCCCC3)cc2)cc1
> 50 µM (inactive) | O=C(Cn1c(=O)n(CCC(=O)N2CC=C(c3ccccc3)CC2)c(=O)c2ccccc21)NCc1ccco1
> 50 µM (inactive) | O=C(NCc1ccc(F)cc1)N1CCC2(C1)Nc1cccnc1NC2=NCc1ccccc1 (stereo not given)
11.5 µM | O=C(C(c1ccccc1)c1ccccc1)N1CCC(c2nc3c(nnn3Cc3c(F)cccc3Cl)c(=O)[nH]2)CC1
1.55 µM | O=C(Nc1cccc(Br)c1)c1cc(-c2cccnc2)n[nH]1
14.6 µM | COc1ccc(CNC(=O)CN2C(=O)CC(c3ccccc3)=Nc3ccccc32)cc1
29 µM | COc1ccccc1NC(=O)Nc1ccc(NC(=O)c2ccccc2O)cc1
